Data: patent publication US7585854B2, “Method for treating endometriosis” (Tochigi Institute of Clinical Pathology, priority 2000, dated 2009)
Structures can show the parent of a compound that is named as a salt.

System: endometriosis model rats
Assay: Therapeutic effect in endometriosis model rats (uterine tissue autotransplanted to peritoneum; lesion observed by light and electron microscopy)
Type: in vivo, Sprague-Dawley rats (female)
Conditions: oral; for invasion of mast cells compared with Comparative Example 1 (non-treated model rats): 0.04 mg/kg bodyweight per day for 6 days from 24 hours after model preparation, lesion sampled at day 7; for therapy of endometriosis (overall conclusion) / apoptosis of fibroblast cells / proliferation of the interstitial cells: 0.04 mg/kg bodyweight per day for 6 days, day 7; for apoptosis of fibroblast cells / proliferation of the interstitial cells: light and electron microscope
Description: Endometriosis model rats were prepared by the method described in Michael W. Vernon et al., FERTILITY AND STERILITY, Vol. 44, No. 5, November 1985. That is, endometriosis model rats were prepared as follows: Sprague-Dawley rats (female) of 8 weeks old were acclimatized for 2 weeks under 12 hours light-dark condition. From each rat, right uterine horn was excised under general anesthesia with sevoflurane and ketamine hydrochloride, and a tissue piece sizing 5 mm×5 mm was prepared therefrom. The tissue piece was subjected to autotransplantation such that the endometrium surface is attached to peritoneum.
Seven days after the preparation of the model rats, at which the model lesion reached its peak, the peritoneum tissue including the graft up to the abdominal muscle was excised to obtain a lesion sample. From the thus obtained samples, light microscope specimens (hematoxylin-eosin staining, toluidine blue staining) and electron microscope specimens (uranium-lead double staining) were prepared, and observations with an light microscope (the magnifications were 4× for hematoxylineosin-stained specimens, and 20× for toluidine blue-stained specimens, respectively), and with an electron microscope were carried out as in Reference Example 1.
Endometriosis model rats were prepared by the same method as in Comparative Example 1. From 24 hours after the preparation of the endometriosis model rats, an antiallergic agent (trademark “Alesion Tablet” produced by Boehringer Ingelheim) containing epinastine hydrochloride as the active component was orally administered to the rats for 6 days at a dose of 0.04 mg/kg bodyweight per day in terms of epinastine hydrochloride. Seven days after the preparation of the model rats, at which the model lesion reached its peak, the peritoneum tissues including the graft up to the abdominal muscle were excised to obtain lesion samples.
The same procedures as in Example 1 were repeated except that an antiallergic agent containing ketotifen fumarate as the active component (trademark “Zaditen” produced by Ciba-Geigy Japan Limited) was administered in place of the antiallergic agent containing epinastine hydrochloride as an active component.
The same procedures as in Example 1 were repeated except that an antiallergic agent containing pranlukast hydrate as the active component (trademark “ONON CAPSULE” produced by ONO PHARMACEUTICAL CO.,LTD.) was administered in place of the antiallergic agent containing epinastine hydrochloride as an active component, and that the administration dose per day was 9 mg/kg in terms of pranlukast hydrate.

| Structure (SMILES) | invasion of mast cells compared with Comparative Example 1 (non-treated model rats) | therapy of endometriosis (overall conclusion) | apoptosis of fibroblast cells | proliferation of the interstitial cells |
| --- | --- | --- | --- | --- |
| NC1=NCC2c3ccccc3Cc3ccccc3N12 (centres unmarked) [epinastine, epinastine hydrochloride] | apparently reduced | effective | observed | prominent inhibition |
| CN1CCC(=C2c3ccccc3CC(=O)c3sccc32)CC1 [ketofetin, ketotifen fumarate] | apparently reduced | effective | observed | prominent inhibition |
